Active and inactive are the calls of the source. The rule behind the calls is not given here.
Key:
Staphylococcus aureus [1] = assay: Bactericidal activity against methicillin-resistant Staphylococcus aureus ATCC BAA41 assessed as reduction in colony forming units at MIC concentration after 6 hrs by time kill assay; type: functional
[2] = biological target: T1, Cell division protein FtsZ (Staphylococcus aureus) (UniProt P0A031); assay: (§1) Inhibition of recombinant N-terminal His6-tagged Staphylococcus aureus FtzS expressed in Escherichia coli BL21 (DE3) cells assessed as reduction in protein protofilament bundling at 8 ug/ml preincubated for 10 mins followed by GTP addition after 15 mins by phosphotungstic acid staining based transmission electron microscopic method
T1 sequence (whole entry): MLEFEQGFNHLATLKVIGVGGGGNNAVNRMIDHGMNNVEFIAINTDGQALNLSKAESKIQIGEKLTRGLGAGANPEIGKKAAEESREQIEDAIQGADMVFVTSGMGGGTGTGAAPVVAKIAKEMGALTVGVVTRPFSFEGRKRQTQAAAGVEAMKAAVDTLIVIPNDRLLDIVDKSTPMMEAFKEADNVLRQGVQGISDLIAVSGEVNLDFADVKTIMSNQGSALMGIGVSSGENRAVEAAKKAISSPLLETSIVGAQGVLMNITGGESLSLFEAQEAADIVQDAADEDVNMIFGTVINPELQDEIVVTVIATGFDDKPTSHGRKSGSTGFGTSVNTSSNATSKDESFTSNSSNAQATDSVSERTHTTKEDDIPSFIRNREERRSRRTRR

[3] = biological target: T2, Cell division protein FtsZ (Bacillus subtilis (strain 168)) (UniProt P17865); assay: Inhibition of Bacillus subtilis 168 GTPase activity of FtsZ assessed as increase in cell length at 2 ug/ml after 4 hrs by phase-contrast optical microscopic analysis; conditions: Bacillus subtilis subsp. subtilis str. 168
T2 sequence (whole entry): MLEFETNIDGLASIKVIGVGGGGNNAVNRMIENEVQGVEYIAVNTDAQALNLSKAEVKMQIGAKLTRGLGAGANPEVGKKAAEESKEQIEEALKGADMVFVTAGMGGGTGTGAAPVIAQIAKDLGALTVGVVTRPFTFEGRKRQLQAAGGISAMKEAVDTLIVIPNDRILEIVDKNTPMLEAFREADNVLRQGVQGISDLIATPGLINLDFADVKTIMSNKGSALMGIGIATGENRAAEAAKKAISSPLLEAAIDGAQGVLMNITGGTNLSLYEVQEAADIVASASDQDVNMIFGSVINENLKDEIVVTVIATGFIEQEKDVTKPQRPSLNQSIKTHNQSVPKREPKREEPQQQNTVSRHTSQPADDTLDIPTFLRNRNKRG

Staphylococcus aureus [4] = assay: Antibacterial activity against methicillin-resistant Staphylococcus aureus ATCC BAA41 after 18 hrs by cation adjusted Mueller-Hinton broth microdilution method; type: functional; conditions: ATCC BAA41, 18 h
[5] = biological target: T1, Cell division protein FtsZ (Staphylococcus aureus); assay: (§2) Inhibition of recombinant N-terminal His6-tagged Staphylococcus aureus ATCC 29213 FtzS GTPase activity expressed in Escherichia coli BL21 (DE3) cells assessed as reduction in GTP hydrolysis at 4 ug/ml preincubated for 10 mins followed by GTP addition measured after 30 mins by CytoPhos reagent based assay
[6] = biological target: T1, Cell division protein FtsZ (Staphylococcus aureus); assay: Inhibition of recombinant N-terminal His6-tagged Staphylococcus aureus ATCC 29213 FtzS polymerization expressed in Escherichia coli BL21 (DE3) cells at 16 ug/ml in presence of GTP by fluorescence spectrometry method
Escherichia coli [7] = assay: Bactericidal activity against Escherichia coli ATCC 25922 assessed as reduction in colony forming units at 1 to 2 times MIC concentration after 24 hrs by time kill assay; type: functional
Enterococcus faecium [8] = assay: Antibacterial activity against vancomycin-resistant Enterococcus faecium ATCC 700221 after 18 hrs by brain heart infusion broth microdilution method; type: functional; conditions: ATCC 700221, 18 h
Escherichia coli [9] = assay: Bactericidal activity against Escherichia coli ATCC 25922 assessed as reduction in colony forming units at 4 times MIC concentration after 4 hrs by time kill assay; type: functional
Enterococcus faecium [10] = assay: Antibacterial activity against antibiotic-susceptile Enterococcus faecium ATCC 49624 after 18 hrs by brain heart infusion broth microdilution method; type: functional; conditions: ATCC 49624, 18 h
Escherichia coli [11] = assay: Antibacterial activity against Escherichia coli ATCC […] expressing NDM-1 beta-lactamase after 18 hrs by Mueller-Hinton broth microdilution method; type: functional
Escherichia coli [12] = assay: Antibacterial activity against Escherichia coli ATCC 25922 after 18 hrs by Mueller-Hinton broth microdilution method; type: functional; conditions: ATCC 25922, 18 h
[13] = biological target: T1, Cell division protein FtsZ (Staphylococcus aureus); assay: Inhibition of recombinant N-terminal His6-tagged Staphylococcus aureus ATCC 29213 FtzS polymerization expressed in Escherichia coli BL21 (DE3) cells in presence of GTP by fluorescence spectrometry method
Bacillus subtilis = assay: Antibacterial activity against Bacillus subtilis 168 after 18 hrs by Mueller-Hinton broth microdilution method; type: functional; conditions: subsp. subtilis str. 168, 18 h
Klebsiella pneumoniae = assay: Antibacterial activity against Klebsiella pneumoniae ATCC BAA2470 expressing NDM-1 beta-lactamase after 18 hrs by Mueller-Hinton broth microdilution method; type: functional; conditions: ATCC BAA2470, 18 h
[14] = biological target: T1, Cell division protein FtsZ (Staphylococcus aureus); assay: as §2, with “16” for “4”
Staphylococcus aureus [15] = assay: Bactericidal activity against methicillin-resistant Staphylococcus aureus ATCC BAA41 assessed as reduction in colony forming units at 1 time MIC concentration after 24 hrs by time kill assay; type: functional
Staphylococcus aureus [16] = assay: Bactericidal activity against methicillin-resistant Staphylococcus aureus ATCC BAA41 assessed as reduction in colony forming units at 2 times MIC concentration after 6 hrs by time kill assay; type: functional
[17] = biological target: T1, Cell division protein FtsZ (Staphylococcus aureus); assay: Inhibition of recombinant N-terminal His6-tagged Staphylococcus aureus ATCC 29213 FtzS GTPase activity expressed in Escherichia coli BL21 (DE3) cells assessed as reduction in GTP hydrolysis at 8 ug/ml preincubated for 10 mins followed by GTP addition after 30 mins by CytoPhos reagent based assay
Staphylococcus aureus [18] = assay: Antibacterial activity against Staphylococcus aureus ATCC 29213 after 18 hrs by cation adjusted Mueller-Hinton broth microdilution method; type: functional; conditions: ATCC 29213, 18 h
Pseudomonas aeruginosa = assay: Antibacterial activity against multidrug-resistant Pseudomonas aeruginosa ATCC BAA2108 after 18 hrs by Mueller-Hinton broth microdilution method; type: functional; conditions: ATCC BAA2108, 18 h
[19] = biological target: T1, Cell division protein FtsZ (Staphylococcus aureus); assay: Inhibition of recombinant N-terminal His6-tagged Staphylococcus aureus ATCC 29213 FtzS GTPase activity expressed in Escherichia coli BL21 (DE3) cells assessed as reduction in GTP hydrolysis preincubated for 10 mins followed by GTP addition measured after 30 mins by CytoPhos reagent based assay
[20] = biological target: T1, Cell division protein FtsZ (Staphylococcus aureus); assay: as §1, with “polymer thickness” for “protofilament bundling”

Q: What does the source list for COc1ccc(Nc2c3ccccc3[n+](C)c3c2[nH]c2ccccc23)cc1.[I-]?
A: Activity (Staphylococcus aureus [1]): 1 ×10² CFU/ml; inhibition [2]: Active; Activity [3]: Active; MIC (Staphylococcus aureus [4]): 2 µg/mL; inhibition [5]: 20%; inhibition [6]: Active; inhibition (Escherichia coli [7]): Active; MIC (Enterococcus faecium [8]): 4 µg/mL; inhibition (Escherichia coli [9]): Active; MIC (Enterococcus faecium [10]): 4 µg/mL; MIC (Escherichia coli [11]): 6 µg/mL; MIC (Escherichia coli [12]): 6 µg/mL; inhibition [13]: Dose-dependent effect; MIC (Bacillus subtilis): 2 µg/mL; MIC (Klebsiella pneumoniae): 48 µg/mL; inhibition [14]: 60%; Activity (Staphylococcus aureus [15]): 1 ×10³ CFU/ml; Activity (Staphylococcus aureus [16]): 1 ×10³ CFU/ml; inhibition [17]: 50%; MIC (Staphylococcus aureus [18]): 2 µg/mL; MIC (Pseudomonas aeruginosa): 48 µg/mL; inhibition [19]: Dose-dependent effect; inhibition [20]: Active

Q: Which inhibition [2] does the source give for COc1ccc(Nc2c3ccccc3[n+](C)c3c2oc2ccccc23)cc1.[I-] here?
A: Active

Q: What about the MIC (Staphylococcus aureus [4]) of the same compound?
A: 4 µg/mL

Q: And the inhibition [6]?
A: Active

Q: And the MIC (Enterococcus faecium [8])?
A: 6 µg/mL

Q: And the MIC (Enterococcus faecium [10])?
A: 6 µg/mL

Q: And the MIC (Escherichia coli [11])?
A: 8 µg/mL

Q: And the MIC (Escherichia coli [12])?
A: 8 µg/mL

Q: And the MIC (Bacillus subtilis)?
A: 4 µg/mL

Q: And the MIC (Klebsiella pneumoniae)?
A: 64 µg/mL

Q: And the MIC (Staphylococcus aureus [18])?
A: 4 µg/mL

Q: What about the MIC (Pseudomonas aeruginosa) of the same compound?
A: 64 µg/mL

Q: What about the inhibition [20] of the same compound?
A: Active

Q: For C[n+]1c2ccccc2c(Nc2cccc(F)c2)c2oc3ccccc3c21.[I-], which MIC (Staphylococcus aureus [4]) is on record?
A: 8 µg/mL

Q: And the MIC (Enterococcus faecium [8])?
A: 12 µg/mL

Q: What about the MIC (Enterococcus faecium [10]) of the same compound?
A: 12 µg/mL

Q: And the MIC (Escherichia coli [11])?
A: 16 µg/mL

Q: What about the MIC (Escherichia coli [12]) of the same compound?
A: 16 µg/mL

Q: What about the MIC (Bacillus subtilis) of the same compound?
A: 8 µg/mL

Q: And the MIC (Klebsiella pneumoniae)?
A: > 64 µg/mL

Q: And the MIC (Staphylococcus aureus [18])?
A: 8 µg/mL

Q: And the MIC (Pseudomonas aeruginosa)?
A: > 64 µg/mL

Q: C[n+]1c2ccccc2c(Nc2ccc(F)cc2F)c2[nH]c3ccccc3c21.[I-] was tested. Which MIC (Staphylococcus aureus [4]) did it give?
A: 4 µg/mL

Q: And the MIC (Enterococcus faecium [8])?
A: 8 µg/mL

Q: What about the MIC (Enterococcus faecium [10]) of the same compound?
A: 8 µg/mL

Q: And the MIC (Escherichia coli [11])?
A: 8 µg/mL

Q: What about the MIC (Escherichia coli [12]) of the same compound?
A: 8 µg/mL

Q: And the MIC (Bacillus subtilis)?
A: 4 µg/mL

Q: What about the MIC (Klebsiella pneumoniae) of the same compound?
A: 64 µg/mL

Q: And the MIC (Staphylococcus aureus [18])?
A: 4 µg/mL

Q: What about the MIC (Pseudomonas aeruginosa) of the same compound?
A: 64 µg/mL

Q: Which results are given for COc1cccc(Nc2c3ccccc3[n+](C)c3c2[nH]c2ccccc23)c1.[I-]?
A: MIC (Staphylococcus aureus [4]): 4 µg/mL; MIC (Enterococcus faecium [8]): 8 µg/mL; MIC (Enterococcus faecium [10]): 8 µg/mL; MIC (Escherichia coli [11]): 8 µg/mL; MIC (Escherichia coli [12]): 8 µg/mL; MIC (Bacillus subtilis): 4 µg/mL; MIC (Klebsiella pneumoniae): > 64 µg/mL; MIC (Staphylococcus aureus [18]): 4 µg/mL; MIC (Pseudomonas aeruginosa): > 64 µg/mL

Q: How did the MIC (Staphylococcus aureus [4]) turn out when Cc1ccccc1Nc1c2ccccc2[n+](C)c2c1[nH]c1ccccc12.[I-] was run?
A: 6 µg/mL

Q: And the MIC (Enterococcus faecium [8])?
A: 8 µg/mL

Q: And the MIC (Enterococcus faecium [10])?
A: 8 µg/mL

Q: And the MIC (Escherichia coli [11])?
A: 12 µg/mL

Q: What about the MIC (Escherichia coli [12]) of the same compound?
A: 12 µg/mL

Q: And the MIC (Bacillus subtilis)?
A: 6 µg/mL

Q: What about the MIC (Klebsiella pneumoniae) of the same compound?
A: > 64 µg/mL

Q: What about the MIC (Staphylococcus aureus [18]) of the same compound?
A: 6 µg/mL

Q: What about the MIC (Pseudomonas aeruginosa) of the same compound?
A: > 64 µg/mL

Q: Which results are given for C[n+]1c2ccccc2c(Nc2ccccc2)c2[nH]c3ccccc3c21.[I-]?
A: MIC (Staphylococcus aureus [4]): 6 µg/mL; MIC (Enterococcus faecium [8]): 8 µg/mL; MIC (Enterococcus faecium [10]): 8 µg/mL; MIC (Escherichia coli [11]): 12 µg/mL; MIC (Escherichia coli [12]): 12 µg/mL; MIC (Bacillus subtilis): 6 µg/mL; MIC (Klebsiella pneumoniae): > 64 µg/mL; MIC (Staphylococcus aureus [18]): 6 µg/mL; MIC (Pseudomonas aeruginosa): > 64 µg/mL

Q: Cc1ccc(Nc2c3ccccc3[n+](C)c3c2oc2ccccc23)cc1.[I-] was tested. Which MIC (Staphylococcus aureus [4]) did it give?
A: 6 µg/mL

Q: What about the MIC (Enterococcus faecium [8]) of the same compound?
A: 8 µg/mL

Q: And the MIC (Enterococcus faecium [10])?
A: 8 µg/mL

Q: And the MIC (Escherichia coli [11])?
A: 12 µg/mL

Q: And the MIC (Escherichia coli [12])?
A: 12 µg/mL

Q: What about the MIC (Bacillus subtilis) of the same compound?
A: 6 µg/mL

Q: What about the MIC (Klebsiella pneumoniae) of the same compound?
A: > 64 µg/mL

Q: And the MIC (Staphylococcus aureus [18])?
A: 6 µg/mL

Q: What about the MIC (Pseudomonas aeruginosa) of the same compound?
A: > 64 µg/mL
